# From ChEMBL document CHEMBL3046372, “Design, Synthesis and Growth Inhibition Activity of Bis-Epoxyethyl Derivatives of Stallimycin Modified on the Amidino Moiety” (Med Chem Res, 2004)
# Key:
# K562 [1] = test: Cytotoxicity against Homo sapiens (human) K562 cells after 72 hr; assay type: functional, cell-based; conditions: K562, 72 h
# L1210 [2] = test: Cytotoxicity against Mus musculus (mouse) L1210 cells after 72 hr; assay type: functional, cell-based; conditions: L1210, 72 h
# K562 [3] = test: Induction of erythroid differentiation in Homo sapiens (human) K562 cells assessed as benzidine-positive cells at IC50 after 4 days; assay type: functional
# K562 [4] = test: Induction of erythroid differentiation in Homo sapiens (human) K562 cells assessed as benzidine-positive cells at IC50 after 6 days; assay type: functional
# L1210 [5] = test: Ratio of distamycin-A IC50 to compound IC50 for Mus musculus (mouse) L1210 cells; assay type: functional
SMILES,IC50 (K562 [1]),IC50 (L1210 [2]),Activity (K562 [3]),Activity (K562 [4]),Ratio IC50 (L1210 [5])
Cn1cc(NC(=O)c2cc(NC(=O)c3cc(N(CC4CO4)CC4CO4)cn3C)cn2C)cc1C(=O)NCC/C(N)=N/C#N (stereo not given),1 µM,6.3 µM,46.3%,65.3%,–
Cn1cc(NC(=O)c2cc(NC(=O)c3cc(N(CC4CO4)CC4CO4)cn3C)cn2C)cc1C(=O)NCC/C(N)=N/O (stereo not given),12 µM,18 µM,11%,13%,–
Cn1cc(NC(=O)c2cc(NC(=O)c3cc(N(CC4CO4)CC4CO4)cn3C)cn2C)cc1C(=O)NCCC(N)=O (stereo not given),25 µM,35 µM,15%,16%,4
CNC(=O)CCNC(=O)c1cc(NC(=O)c2cc(NC(=O)c3cc(N(CC4CO4)CC4CO4)cn3C)cn2C)cn1C (stereo not given),25 µM,38 µM,12%,15%,4
Cn1cc(NC(=O)c2cc(NC(=O)c3cc(N)cn3C)cn2C)cc1C(=O)NCC/C(N)=N/C#N,> 50 µM,> 50 µM,–,–,–
Cn1cc(NC(=O)c2cc(NC(=O)c3cc(N)cn3C)cn2C)cc1C(=O)NCC/C(N)=N/O,> 50 µM,> 50 µM,–,–,–
Cn1cc(NC(=O)c2cc(NC(=O)c3cc(N)cn3C)cn2C)cc1C(=O)NCCC(N)=O,45 µM,> 50 µM,–,–,–
CNC(=O)CCNC(=O)c1cc(NC(=O)c2cc(NC(=O)c3cc(N)cn3C)cn2C)cn1C,> 50 µM,> 50 µM,–,–,–
Cl.Cl.Cn1cc(NC(=O)c2cc(NC(=O)c3cc(NC=O)cn3C)cn2C)cc1C(=O)NCCC(=N)N,10 µM,50 µM,8%,10%,–
